Publication PMC9570109, “Improved Trimethylangelicin Analogs for Cystic Fibrosis: Design, Synthesis and Preliminary Screening” (International Journal of Molecular Sciences, 2022)

Columns and labels:
[1] = test system: Salmonella typhimurium TA97A; assay: Ames mutagenicity assay, plate incorporation, TA97A; type: cell-based
Experimental: (§1) The mutagenicity assay was performed for the test compounds following the plate incorporation method with the histidine-requiring Salmonella typhimurium mutant TA97A, TA98, TA100, and TA1535 strains purchased by Molecular Toxicology Inc. (Boone, NC, USA; moltox.com). All strains (100 µL per plate of fresh overnight cultures) were checked with and without the addition of 0.5 mL of a 5% S9 exogenous metabolic activator (S9 mix). The lyophilized post-mitochondrial supernatant S9 mix (Aroclor 1254-induced, Sprague–Dawley male rat liver in 0.154 M KCl solution), commonly used for the activation of pro-mutagens in mutagenic metabolites (Molecular Toxicology, Inc., Boone, NC, USA), was stored at −80 °C before use. The concentration tested for all the samples were 5, 10, 20, 50, and 100 µL/plate from a stock solution of 500 nM. A fully grown culture of the appropriate tester strain (0.1 mL) was added to 2 mL molten top agar (0.6% agar, 0.6% NaCl, 0.5 mM L-histidine/biotin solution) at 46 °C, together with 0.1 mL of each sample solution at different concentrations, and 0.5 mL S9 mix for assays with metabolic activation. The ingredients were thoroughly mixed and poured onto minimal glucose agar plates (1.5% agar in 2% Vogel–Bonner medium E with 5% glucose solution). DMSO was used as negative a control (100 µL/plate). Positive controls were prepared as follows: 2-aminoanthracene (2 µg/plate) and 2-nitrofluorene (2 µg/plate) for TA 97A, TA98 and TA1535 with and without metabolic activator (S9 mix), respectively; 2-aminoanthracene (2 µg/plate) and sodium azide (2 µg/plate) for TA100, with and without metabolic activator (S9 mix), respectively. The plates were incubated at 37 °C for 72 h and then his+ revertants were checked and counted using a Colony Counter 560 Suntex (Antibioticos, Italy). A sample was considered mutagenic when the observed number of colonies was at least twofold over the spontaneous level of revertants. All determinations were made in triplicate. Statistical analysis: relative standard deviations were calculated using the statistical software STATISTICA 6.0 (StatSoft, Italia srl, Vigonza, Italy). […]
(§2) Salmonella typhimurium TA97A Salmonella typhimurium TA98 Salmonella typhimurium TA100 Salmonella typhimurium 1535 […]
(§3) average SD t/c average SD t/c average SD t/c average SD t/c average SD t/c average SD t/c average SD t/c average SD t/c […]
(§4) *Significant values according to Ames computation (Maron & Ames, 1983); DMSO, C+: negative and positive controls respectively; SD: Standard Deviation; t/c: number of revertant colonies in treated plates/number of revertant colonies in […]

[2] = test system: Salmonella typhimurium 1535; assay: Ames mutagenicity assay, plate incorporation, TA1535; type: cell-based
Experimental: as §1, §2, §3, §4

[3] = test system: salmon testes DNA; assay: Photoadduct formation with DNA under UVA irradiation (TLC analysis); conditions: 15 J/cm2 UVA
Summary of the method: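 Compound in ethanol (2 mg/mL) added to salmon testes DNA in 10 mM NaCl/1 mM EDTA and irradiated with 15 J/cm2 UVA (about 8 mW/cm^2) for 1 h at room temperature. DNA then precipitated, acid-hydrolysed at 100 °C for 1 h, chloroform-extracted, and photoadducts resolved by TLC (EtOAc/EtOH 9:1).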

[4] = test system: Salmonella typhimurium TA98; assay: Ames mutagenicity assay, plate incorporation, TA98; type: cell-based
Experimental: as §1, §2, §3, §4

[5] = +S9, 5 µL/plate of 500 nM stock
[6] = +S9, 10 µL/plate of 500 nM stock
[7] = +S9, 20 µL/plate of 500 nM stock
[8] = +S9, 50 µL/plate of 500 nM stock
[9] = +S9, 100 µL/plate of 500 nM stock
[10] = -S9, 5 µL/plate of 500 nM stock
[11] = -S9, 10 µL/plate of 500 nM stock
[12] = -S9, 20 µL/plate of 500 nM stock
[13] = -S9, 50 µL/plate of 500 nM stock
[14] = -S9, 100 µL/plate of 500 nM stock
[15] = 1535, +S9, 5 µL/plate of 500 nM stock
[16] = 1535, +S9, 10 µL/plate of 500 nM stock
[17] = 1535, +S9, 20 µL/plate of 500 nM stock
[18] = 1535, +S9, 50 µL/plate of 500 nM stock
[19] = 1535, +S9, 100 µL/plate of 500 nM stock
[20] = 1535, -S9, 5 µL/plate of 500 nM stock
[21] = 1535, -S9, 10 µL/plate of 500 nM stock
[22] = 1535, -S9, 20 µL/plate of 500 nM stock
[23] = 1535, -S9, 50 µL/plate of 500 nM stock
[24] = 1535, -S9, 100 µL/plate of 500 nM stock
[25] = TA98, +S9, 5 µL/plate of 500 nM stock
[26] = TA98, +S9, 10 µL/plate of 500 nM stock
[27] = TA98, +S9, 20 µL/plate of 500 nM stock
[28] = TA98, +S9, 50 µL/plate of 500 nM stock
[29] = TA98, +S9, 100 µL/plate of 500 nM stock
[30] = TA98, -S9, 5 µL/plate of 500 nM stock
[31] = TA98, -S9, 10 µL/plate of 500 nM stock
[32] = TA98, -S9, 20 µL/plate of 500 nM stock
[33] = TA98, -S9, 50 µL/plate of 500 nM stock
[34] = TA98, -S9, 100 µL/plate of 500 nM stock

Cc1cc(=O)oc2c1cc(-c1ccc(N)cc1)c1occ(C)c12 [pANDMA]
revertant colonies, average [1, 5]: 88.5 | t/c (revertant colonies treated/untreated plates) [1, 5]: 0.8 | revertant colonies, average [1, 6]: 100.5 | t/c (revertant colonies treated/untreated plates) [1, 6]: 0.9 | revertant colonies, average [1, 7]: 92.5 | t/c (revertant colonies treated/untreated plates) [1, 7]: 0.8 | revertant colonies, average [1, 8]: 104.5 | t/c (revertant colonies treated/untreated plates) [1, 8]: 1.0 | revertant colonies, average [1, 9]: 101.0 | t/c (revertant colonies treated/untreated plates) [1, 9]: 0.9 | revertant colonies, average [1, 10]: 82.5 | t/c (revertant colonies treated/untreated plates) [1, 10]: 1.1 | revertant colonies, average [1, 11]: 80.5 | t/c (revertant colonies treated/untreated plates) [1, 11]: 1.0 | revertant colonies, average [1, 12]: 82.0 | t/c (revertant colonies treated/untreated plates) [1, 12]: 1.1 | revertant colonies, average [1, 13]: 86.5 | t/c (revertant colonies treated/untreated plates) [1, 13]: 1.1 | revertant colonies, average [1, 14]: 86.0 | t/c (revertant colonies treated/untreated plates) [1, 14]: 1.1 | revertant colonies, average [2, 15]: 14.5 | t/c (revertant colonies treated/untreated plates) [2, 15]: 1.4 | revertant colonies, average [2, 16]: 17.0 | t/c (revertant colonies treated/untreated plates) [2, 16]: 1.6 | revertant colonies, average [2, 17]: 12.0 | t/c (revertant colonies treated/untreated plates) [2, 17]: 1.1 | revertant colonies, average [2, 18]: 13.0 | t/c (revertant colonies treated/untreated plates) [2, 18]: 1.2 | revertant colonies, average [2, 19]: 14.0 | t/c (revertant colonies treated/untreated plates) [2, 19]: 1.3 | revertant colonies, average [2, 20]: 17.5 | t/c (revertant colonies treated/untreated plates) [2, 20]: 1.6 | revertant colonies, average [2, 21]: 13.0 | t/c (revertant colonies treated/untreated plates) [2, 21]: 1.2 | revertant colonies, average [2, 22]: 5.5 | t/c (revertant colonies treated/untreated plates) [2, 22]: 0.5 | revertant colonies, average [2, 23]: 9.5 | t/c (revertant colonies treated/untreated plates) [2, 23]: 0.9 | revertant colonies, average [2, 24]: 10.0 | t/c (revertant colonies treated/untreated plates) [2, 24]: 0.9 | photoadduct formation with DNA upon UVA irradiation [3]: only the unchanged bands | revertant colonies, average [4, 25]: 50.0 | t/c (revertant colonies treated/untreated plates) [4, 25]: 1.1 | revertant colonies, average [4, 26]: 48.0 | t/c (revertant colonies treated/untreated plates) [4, 26]: 1.0 | revertant colonies, average [4, 27]: 49.5 | t/c (revertant colonies treated/untreated plates) [4, 27]: 1.1 | revertant colonies, average [4, 28]: 51.0 | t/c (revertant colonies treated/untreated plates) [4, 28]: 1.1 | revertant colonies, average [4, 29]: 45.5 | t/c (revertant colonies treated/untreated plates) [4, 29]: 1.0 | revertant colonies, average [4, 30]: 40.5 | t/c (revertant colonies treated/untreated plates) [4, 30]: 1.0 | revertant colonies, average [4, 31]: 40.5 | t/c (revertant colonies treated/untreated plates) [4, 31]: 1.0 | revertant colonies, average [4, 32]: 43.5 | t/c (revertant colonies treated/untreated plates) [4, 32]: 1.1 | revertant colonies, average [4, 33]: 41.0 | t/c (revertant colonies treated/untreated plates) [4, 33]: 1.1 | revertant colonies, average [4, 34]: 39.0 | t/c (revertant colonies treated/untreated plates) [4, 34]: 1.0
